Laboratory results taken from paper PMC10609963, “Targeting Lactate Dehydrogenase-B as a Strategy to Fight Cancer: Identification of Potential Inhibitors by In Silico Analysis and In Vitro Screening” (Pharmaceutics, 2023).
Read-outs that look alike come from different tables or passages of the source.

Assays:
Recombinant human LDH-B [1] = target: T1, Recombinant human LDH-B (Homo sapiens, UniProt P07195); assay: NBT/PMS end-point colorimetric assay, 96-well, lactate to pyruvate; format: biochemical
T1 construct: gene LDHB; commercial recombinant protein (R&D Systems); homotetramer (LDH-1)

Recombinant human LDH-B [2] = target: T1, Recombinant human LDH-B; assay: NBT/PMS colorimetric kinetics, mixed-model inhibition fit; format: biochemical
Source text: NBT/PMS colorimetric kinetics, mixed-model inhibition fit on Recombinant human LDH-B

[3] = tested on: T2, NC(=O)c1ccc[n+]([C@@H]2O[C@H](COP(=O)(O)OP(=O)(O)OC[C@H]3O[C@@H](n4cnc5c(N)ncnc54)[C@H](O)[C@@H]3O)[C@@H](O)[C@H]2O)c1; assay: NBT/PMS colorimetric kinetics, Michaelis-Menten fit; format: biochemical, Homo sapiens; settings: 25 mM sodium lactate, no inhibitor (control), pH 9.6, room temperature, varied: cofactor
T2 construct: commercial recombinant protein (R&D Systems); homotetramer (LDH-1)
Source text: (§1) NBT/PMS colorimetric kinetics, Michaelis-Menten fit on Recombinant human LDH-B

C[C@H](O)C(=O)O = tested on: T3, C[C@H](O)C(=O)O; assay: as above; format: biochemical, Homo sapiens; settings: 1 mM NAD+, no inhibitor (control), pH 9.6, room temperature
T3 construct: commercial recombinant protein (R&D Systems); homotetramer (LDH-1)
Source text: as §1

T1 sequence (P07195 2-334): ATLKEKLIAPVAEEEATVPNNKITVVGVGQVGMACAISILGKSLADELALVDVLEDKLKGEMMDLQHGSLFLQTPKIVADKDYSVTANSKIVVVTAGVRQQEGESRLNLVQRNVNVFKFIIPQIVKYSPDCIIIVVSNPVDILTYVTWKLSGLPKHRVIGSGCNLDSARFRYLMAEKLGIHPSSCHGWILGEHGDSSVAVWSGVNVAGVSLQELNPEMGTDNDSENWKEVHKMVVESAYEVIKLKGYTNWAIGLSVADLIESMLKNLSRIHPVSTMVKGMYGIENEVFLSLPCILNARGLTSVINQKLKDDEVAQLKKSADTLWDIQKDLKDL

Cc1cc(Nc2ncnc3ccc(NC4=NC(C)(C)CO4)cc23)ccc1Oc1ccn2ncnc2c1 [compound 1, Tucatinib]
IC50 (Recombinant human LDH-B [1]): 502 µM
Ki (Recombinant human LDH-B [2]; read-out: Tucatinib / Lactate): 2.96 mM

CNC(=O)c1ccc(-c2cnc3ncc(Cc4ccc5ncccc5c4)n3n2)cc1F [compound 2, Capmatinib]
IC50 (Recombinant human LDH-B [1]): 512 µM
Ki (Recombinant human LDH-B [2]; read-out: Capmatinib / Lactate): 2.69 mM

Recombinant human LDH-B (Homo sapiens)
Km [3]: 311 µM
Vmax [3]: 1040 µM/min
Km (C[C@H](O)C(=O)O): 18.5 mM
Vmax (C[C@H](O)C(=O)O): 1050 µM/min
